This note sets out measurements from ChEMBL document CHEMBL1126185, “2-(N'-alkylidenehydrazino)adenosines: potent and selective coronary vasodilators” (J Med Chem, 1992).

For assay [1], the target named is T1, Adenosine receptor A1 (Cavia porcellus, UniProt P47745).
T1 sequence (P47745 whole entry): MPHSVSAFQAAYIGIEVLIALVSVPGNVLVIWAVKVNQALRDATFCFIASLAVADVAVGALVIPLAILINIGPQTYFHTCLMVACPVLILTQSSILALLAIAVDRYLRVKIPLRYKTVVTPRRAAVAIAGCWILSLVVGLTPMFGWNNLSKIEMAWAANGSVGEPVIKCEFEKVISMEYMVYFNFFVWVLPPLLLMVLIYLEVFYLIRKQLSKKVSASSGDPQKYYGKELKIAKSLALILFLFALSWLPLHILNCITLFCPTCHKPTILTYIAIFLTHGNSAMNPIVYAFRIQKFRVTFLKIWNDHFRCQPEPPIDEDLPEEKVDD
Briefly: In vitro prolonging of the stimulus-QRS interval in guinea pig heart.

Assay [2] concerns the target Adenosine A2 receptor (Cavia porcellus). Briefly: In vitro effect on coronary vasodilation in guinea pig heart.

For orientation: EC50 means the concentration needed to bring the measured effect to its halfway point. In assay [1], `CC(C)C/C=N/Nc1nc(N)c2ncn([C@@H]3O[C@H](CO)[C@@H](O)[C@H]3O)c2n1` showed an EC50 of 20.9 µM. In addition, the “-Log EC50” value in assay [2] is recorded as 9.33.
In turn, `Nc1nc(NCCC2=CCCCC2)nc2c1ncn2C1O[C@H](CO)[C@@H](O)[C@H]1O` (stereo partly specified) showed an EC50 in assay [1] of 22.9 µM. Further, the “-Log EC50” value in assay [2] is reported as 8.65.
`CCC/C=N/Nc1nc(N)c2ncn(C3O[C@H](CO)[C@@H](O)[C@H]3O)c2n1` (stereo partly specified) showed a half-maximal effective concentration (EC50) in assay [1] of 11.5 µM. Moreover, the “-Log EC50” value in assay [2] is recorded as 8.54.
In the case of `CC(C)/C=N/Nc1nc(N)c2ncn(C3O[C@H](CO)[C@@H](O)[C@H]3O)c2n1` (stereo partly specified), a half-maximal response in assay [1] (EC50) required 12.6 µM. For the same compound, the “-Log EC50” value in assay [2] is on record as 8.13.
As for `Nc1nc(N/N=C/C2=CCCCC2)nc2c1ncn2C1O[C@H](CO)[C@@H](O)[C@H]1O` (stereo partly specified), the 50% effective concentration (EC50) in assay [1] is 17.4 µM.
`C/C=N/Nc1nc(N)c2ncn(C3O[C@H](CO)[C@@H](O)[C@H]3O)c2n1` (stereo partly specified): in assay [1], the EC50 is 3.63 µM. For the same compound, the “-Log EC50” value in assay [2] came out at 7.12.
The compound `CC(C)=NNc1nc(N)c2ncn(C3O[C@H](CO)[C@@H](O)[C@H]3O)c2n1` (stereo partly specified) gave an EC50 in assay [1] of 12 µM. Also, the “-Log EC50” value in assay [2] was determined as 7.3.
Consider `Nc1nc(N/N=C/CC2CCCCC2)nc2c1ncn2C1O[C@H](CO)[C@@H](O)[C@H]1O` (stereo partly specified), for which, in assay [1], it took 9.77 µM to reach a half-maximal effect (EC50). In addition, the “-Log EC50” value in assay [2] turned out to be 9.16.
With `Nc1nc(N/N=C/CCC2CCCCC2)nc2c1ncn2C1O[C@H](CO)[C@@H](O)[C@H]1O` (stereo partly specified), the EC50 in assay [1] is 66.1 µM.
On to `CC/C=N/Nc1nc(N)c2ncn(C3O[C@H](CO)[C@@H](O)[C@H]3O)c2n1` (stereo partly specified), for which, in assay [1], the concentration for a half-maximal effect (EC50) was 13.5 µM. For the same compound, the “-Log EC50” value in assay [2] was 7.88.
Taken in the same sequence, the figures for `Nc1nc(N/N=C/C2=CC3CCC2C3)nc2c1ncn2C1O[C@H](CO)[C@@H](O)[C@H]1O` (stereo partly specified) were 20.4 µM and 8.48.
In the case of `NNc1nc(N)c2ncn(C3O[C@H](CO)[C@@H](O)[C@H]3O)c2n1` (stereo partly specified), in assay [1], the EC50 is 20 µM.
`CC(C)(C)/C=N/Nc1nc(N)c2ncn(C3O[C@H](CO)[C@@H](O)[C@H]3O)c2n1` (stereo partly specified) showed an EC50 in assay [1] of 25.1 µM. Besides, the “-Log EC50” value in assay [2] is listed as 7.46.
`CCC(/C=N/Nc1nc(N)c2ncn(C3O[C@H](CO)[C@@H](O)[C@H]3O)c2n1)CC` (stereo partly specified) gave an EC50 in assay [1] of 11 µM. In addition, in assay [2], the “-Log EC50” value amounted to 8.24.
Consider `Nc1nc(N/N=C/C2CC=CCC2)nc2c1ncn2C1O[C@H](CO)[C@@H](O)[C@H]1O` (stereo partly specified), for which the EC50 in assay [1] was 7.24 µM.
Regarding `CCCC/C=N/Nc1nc(N)c2ncn(C3O[C@H](CO)[C@@H](O)[C@H]3O)c2n1` (stereo partly specified), the midpoint of the response in assay [1], the EC50, lay at 25.1 µM. The “-Log EC50” value in assay [2] is 8.99.
Regarding `CC1(C)C2CC=C(/C=N/Nc3nc(N)c4ncn(C5O[C@H](CO)[C@@H](O)[C@H]5O)c4n3)C1C2` (stereo partly specified), in assay [1], the concentration giving a half-maximal response (EC50) was 25.7 µM.
`CCC(CC)=NNc1nc(N)c2ncn(C3O[C@H](CO)[C@@H](O)[C@H]3O)c2n1` (stereo partly specified) had an EC50 in assay [1] of 8.91 µM. The “-Log EC50” value in assay [2] came out at 6.75.
Turning to `CCC/C(C)=N/Nc1nc(N)c2ncn(C3O[C@H](CO)[C@@H](O)[C@H]3O)c2n1` (stereo partly specified), the midpoint of the response in assay [1], the EC50, lay at 16.6 µM. Besides, the “-Log EC50” value in assay [2] is reported as 8.7.
The compound `Nc1nc(NCCC2CCCCC2)nc2c1ncn2C1O[C@H](CO)[C@@H](O)[C@H]1O` (stereo partly specified) had an EC50 in assay [1] of 12.3 µM. Also, the “-Log EC50” value in assay [2] turned out to be 8.72.
In assay [1], `Nc1nc(N/N=C/C2CCCCC2)nc2c1ncn2[C@@H]1O[C@H](CO)[C@@H](O)[C@H]1O` [BINODENOSON] had an EC50 of 3.55 µM.
